We go through six compounds from patent US12402627B2, “Metal complexes for promoting growth in a photosynthetic organism” (Imperial College Innovations Limited, priority 2018, dated 2025).

A short description of assay [1]: Kinetic measurement of HCO3− dehydration via stopped flow. Type of assay: biochemical. Conditions: for Dehydration kobs: pH 7.4, 25° C. The text has this:
(§1) The hydration and dehydration rate measurements were undertaken by detecting the associated pH change through the use of an appropriate colorimetric pH indicator via stopped-flow equipment (Applied Photophysics SX-20 Stopped-flow Spectrometer) as described by B. H. Gibbons et al. (J. Biol. Chem., 238(10), (1963), 3502-3507). The pH time-dependence of CO2 hydration or HCO3− dehydration was observed via the absorbance change of a buffered indicator solution in order to measure the change in Vhydr/dehydr over a concentration range of zinc mimic, and to determine the observed rate constant (kobs) for each reaction.
(§2) Following the procedure reported by K. Nakata et al. (J. Inorg. Biochem., 89, (2002), 255-266), a 0.1 M buffer solution containing 10×10^−5M indicator, 0.2 M NaClO4 and varying concentrations of the zinc complex in DMSO 1:9 H2O were loaded into one syringe and a CO2 or HCO3− aqueous solution in the other. […] The saturated solution was diluted appropriately to give the desired concentration of CO2. HCO3− solutions were prepared by dissolving NaHCO3 in water to give the desired concentration of HCO3−. The buffer-indicator pairs were chosen based upon their similar pKa's, and the pH of the buffer-indicator solution was adjusted to match these pKa's to maximize sensitivity to pH change (see Table 2).
(§3) Upon mixing of the two syringes, the change in absorbance over time was measured at 25° C. For each buffer solution employed over the tested pH range, the buffer factor (change in absorbance vs concentration of HCl/NaOH) and linearity of CO2 and HCO3− (change in absorbance vs concentration of CO2/HCO3−) were determined as controls.
(§4) Based upon the linearity of the response between CO2 or HCO3− concentration and change in absorbance, appropriate concentrations of CO2 or HCO3− were chosen within the linear range for the subsequent complex runs. At each concentration of complex, the Vhydr (rate of hydration) and Vdehyd (rate of dehydration) was measured and kobs (observed rate constant) was calculated as per the procedure of by K. Nakata et al. (J. Inorg. Biochem., 89, (2002), 255-266).
(§5) Briefly, Vhyd/dehyd=−Q(A0−Ae)[d(In(A−Ae))/dt]t→0, where Q=buffer factor. The function [d(In(A−Ae))/dt]t→0 was taken from fitting the first linear portion of the time-dependent absorbance data with a single exponential decay function. kobs was calculated as the slope of the linear fit between mimic concentration and Vhyd/dehyd/[S]. kcat (catalytic rate constant) was calculated as the pH independent catalyst rate constant as per K. Nakata et al. (J. Inorg. Biochem., 89, (2002), 255-266) and L. Koziol et al. (Inorg. Chem., 51(12), (2012) 6803-12) for the hydration reaction (kcat=kobs×(([H^+]/Ka)+1)), and Y.-J. Sun et al. (Inorg. Chem. Commun., 7(2), (2004), 165-168) for the dehydration reaction (kcat=(kobs×([H^+]+Ka))/[H^+]). Each run of 3 repeats was undertaken 3 times and the average taken, to give N=9.

Assay [2] can be described thus: Kinetic measurement of CO2 hydration via stopped flow. The class given is biochemical. Conditions: pH 7.4; for Hydration kobs: 25° C.
Excerpt: as §1, §2, §3, §4, §5

The next assay concerns the target T1, Rubisco (Spinacia oleracea, UniProt P00875).
T1 construct: from tissue; purified by the cited method of O'Donnelly et al., Plant Methods 2014
Put plainly: Effect of zinc mimics on Rubisco activity (non-radioactive microplate assay, 3-PGA/NADH oxidation). Conditions: pH 8; 0-50 μM zinc mimic; FIGS. 4 to 7. Type of assay: biochemical. The procedure:
Rubisco was purified using hydrophobic interaction chromatography as per the method of K. O'Donnelly et al. (Plant methods, 10, (2014), 17). For all assays, the rate was determined using a non-radioactive microplate-based assay, which determines the product 3-phosphoglycerate (3-PGA) through the oxidation of NADH by optical density measurements at 340 nm at 25° C., adapted from R. Sulpice et al. (Plant Cell Environ., 30(9), (2007), 1163-75) and K. O'Donnelly et al. (Plant methods, 10, (2014), 17). A Thermo Scientific Varioskan Flash Multimode microplate reader was used to monitor the oxidation of NADH for 15 minutes every 100 ms.
The enzymological properties of Rubisco were typically measured as follows: 10 μL Rubisco and 10 μL of initial buffer were incubated for 15 mins, after which 10 μL of ribulose 1,5-biphosphate (RuBP) was added [Final concentrations for Rubisco assay in 30 μL total volume were 0, 10, 20, 40, 80, 150, 300 and 500 μM RuBP, 0.02 mg/mL Rubisco, 100 mM tricine (pH 8.0/NaOH), 20 mM MgCl2, 2 mM EDTA and 10 mM NaHCO3]. […] The activity was calculated as μmol·min^−l·mg^−1 using a calibration curve with 3PGA. […]
10 μL of Rubisco and 10 μL of pH 8 initial buffer containing varying concentrations of zinc complex were incubated in a 96 well plate for 15 mins. […] The final pH, after the addition of NaHCO3, and before the addition of Rubisco, was measured as pH 8.0. […]

The subject of assay [3] is spinach (Spinacia oleracea L.). Put plainly: Effect of zinc mimics on spinach growth (number of new leaves). Type of assay: in vivo. The note with it: 1.5 mM in DMSO or H2O, 5 μl droplets to each leaf, three times a week for two weeks, FIG. 8. As for the experimental part:
Commercial cultivar spinach seeds (Spinacia oleracea L.) were planted in soil mixture of “John Innes Inc. seed sowing compost No2”: Vermiculite (4:1) in small pots. Spinach seeds were germinated in a Sanyo MLR-352 growth chamber under day (photosynthetically active photon flux density (PPFD) at 110-130 μmol·m-2s-1) and night conditions, changing every 12 hours. Air temperature was maintained at 20° C. and 15° C. during day and night conditions, respectively, with a constant relative humidity at 65%. Spinach plants were irrigated three times a week. At the second true leaf stage (approximately 3 weeks from seed germination), the seeds were transferred into larger singular pots in “John Innes No2—Potting on compost” soil. No extra fertilizer was added.
At the fourth true leaf stage (roughly 4-6 weeks after germination), the treatment (1.5 mM in DMSO or H2O) was applied directly to each leaf of the plant in 5 μl droplets using a Brand Handystep S. The treatments were applied three times a week (directly after irrigation) for two weeks. The leaf stage and the state of the leaves were observed throughout the treatment period.

Where [4] appears, read: high substrate concentration (16.9 mM).
[5] abbreviates: low substrate concentration (1.69 mM).

With `O.[O-][Cl+3]([O-])([O-])[O-].[O-][Cl+3]([O-])([O-])[O-].[Zn+2].c1ccc2sc(CNCc3nc4ccccc4s3)nc2c1` [Zn2S, zinc complex of bis(2-benzothiazolylmethyl)amine], the Dehydration kobs in assay [1] (setting [4]) was determined as 30.6 ± 0.6 M⁻¹ s⁻¹; in assay [1] (setting [5]), 115.2 ± 1.8 M⁻¹ s⁻¹. For the same compound, the “Hydration:Dehydration Ratio” value in assay [2] (setting [4]) turned out to be 0.57; in assay [2] (setting [5]), 3.01. Further, the Hydration kobs in assay [2] (setting [4]) came to 17.5 ± 8.6 M⁻¹ s⁻¹; in assay [2] (setting [5]) it was 347.1 ± 33.0 M⁻¹ s⁻¹.

Turning to `O.[O-][Cl+3]([O-])([O-])[O-].[O-][Cl+3]([O-])([O-])[O-].[Zn+2].c1ccc2sc(CN(Cc3nc4ccccc4s3)Cc3nc4ccccc4s3)nc2c1` [Zn3S, zinc complex of tris(2-benzothiazolylmethyl)amine], the rubisco activity result on Rubisco was “significant improvement in activity”. Also, the Dehydration kobs stood at 37.8 ± 0.8 M⁻¹ s⁻¹ in assay [1] (setting [4]) and 140.8 ± 4.8 M⁻¹ s⁻¹ in assay [1] (setting [5]). For the same compound, the entries for the “Hydration:Dehydration Ratio” value in assay [2] (setting [4]) and in assay [2] (setting [5]) were 0.65 and 3.05, respectively. For the same compound, the Hydration kobs in assay [2] (setting [4]) is 24.5 ± 10.4 M⁻¹ s⁻¹; in assay [2] (setting [5]), 429.7 ± 51.2 M⁻¹ s⁻¹.

In the case of “zinc complex of bis(2-benzimidazolylmethyl)(2-benzothiazolylmethyl)amine [Zn2N1S]”, the figures for the Dehydration kobs in assay [1] (setting [4]) and in assay [1] (setting [5]) were 44.6 ± 1.6 M⁻¹ s⁻¹ and 157.6 ± 2.1 M⁻¹ s⁻¹, respectively. Further, the “Hydration:Dehydration Ratio” value is 0.60 in assay [2] (setting [4]) and 3.14 in assay [2] (setting [5]). Moreover, the Hydration kobs turned out to be 26.6 ± 11.1 M⁻¹ s⁻¹ in assay [2] (setting [4]) and 495.4 ± 34.0 M⁻¹ s⁻¹ in assay [2] (setting [5]).

For the compound “zinc complex of bis(2-benzimidazolylmethyl)amine [Zn2N]”, the Dehydration kobs is 27.5 ± 0.5 M⁻¹ s⁻¹ in assay [1] (setting [4]) and 94.1 ± 1.6 M⁻¹ s⁻¹ in assay [1] (setting [5]). Besides, the entries for the “Hydration:Dehydration Ratio” value in assay [2] (setting [4]) and in assay [2] (setting [5]) were 0.80 and 3.94, respectively. Besides, the Hydration kobs in assay [2] (setting [4]) was determined as 22.0 ± 9.3 M⁻¹ s⁻¹; in assay [2] (setting [5]), 370.6 ± 13.4 M⁻¹ s⁻¹.

Regarding “zinc complex of bis(2-benzothiazolylmethyl)(2-benzimidazolylmethyl)amine [Zn1N2S]”, the rubisco activity entry at Rubisco was “significant improvement in activity”. Further, the specificity toward dehydration result in assay [1] (from the results in Tables 3 and 4, pH 7.4) is given as “best specificity toward dehydration”. In addition, the values for the Dehydration kobs in assay [1] (setting [4]) and in assay [1] (setting [5]) were 51.9 ± 0.5 M⁻¹ s⁻¹ and 171.3 ± 4.5 M⁻¹ s⁻¹, respectively. The “Hydration:Dehydration Ratio” value in assay [2] (setting [4]) came out at 0.49; in assay [2] (setting [5]) it was 2.57. For the same compound, the Hydration kobs in assay [2] (setting [4]) came to 25.3 ± 8.4 M⁻¹ s⁻¹; in assay [2] (setting [5]) it was 440.8 ± 24.5 M⁻¹ s⁻¹.

Take “zinc complex of tris(2-benzimidazolylmethyl)amine [Zn3N]”: the Dehydration kobs in assay [1] (setting [4]) came out at 33.8 ± 0.8 M⁻¹ s⁻¹; in assay [1] (setting [5]), 124.1 ± 1.8 M⁻¹ s⁻¹. The “Hydration:Dehydration Ratio” value in assay [2] (setting [4]) was 1.02; in assay [2] (setting [5]), 4.13. The Hydration kobs was 34.4 ± 11.3 M⁻¹ s⁻¹ in assay [2] (setting [4]) and 512.3 ± 60.3 M⁻¹ s⁻¹ in assay [2] (setting [5]). The “number of new leaves” value in assay [3] is recorded as “significant improvement in the number of new leaves”.
